Measured values taken from patent US7407969B2, “Respiratory syncytial virus replication inhibitors” (Janssen Pharmaceutica, N.V., priority 1999, dated 2008).
Read-outs that look alike come from different tables or passages of the source.

Columns and labels:
[1] = Cytotoxicity (CC50) in mock-infected HeLa cells, tetrazolium (MTT) colorimetric assay; assay type: cell-based; conditions: human
Experimental: (§1) The percent protection against cytopathology caused by viruses (antiviral activity or IC50) achieved by tested compounds and their cytotoxicity (CC50) were both calculated from dose-response curves.
Automated tetrazolium-based […] assays were used for determination of IC50 and CC50 of test compounds. Flat-bottom, 96-well plastic microtiter trays were filled with 180 μl of Eagle's Basal Medium, supplemented with 5% FCS (0% for FLU) and 20 mM Herpes buffer. Subsequently, stock solutions (7.8×final test concentration) of compounds were added in 45 μl volumes to a series of triplicate wells so as to allow simultaneous evaluation of their effects on virus- and mock-infected cells. Five five-fold dilutions were made directly in the microtiter trays using a robot system. Untreated virus controls, and HeLa cell controls were included in each test. Approximately 100 TCID50 Respiratory Syncytial Virus was added to two of the three rows in a volume of 50 μl. The same volume of medium was added to the third row to measure the cytotoxicity of the compounds at the same concentrations as those used to measure the antiviral activity. After two hours of incubation, a suspension (4×10^5 cells/ml) of HeLa cells was added to all wells in a volume of 50 μl. The cultures were incubated at 37° C. in a 5% CO2 atmosphere. Seven days after infection the cytotoxicity and the antiviral activity was examined spectrophotometrically. To each well of the microtiter tray, 25 μl of a solution of MIT (3-(4,5-dimethylthiazol-2-yl)-2,5-diphenyltetrazolium bromide) was added. The trays were further incubated at 37° C. for 2 hours, after which the medium was removed from each cup. Solubilization of the formazan crystals was achieved by adding 100 μl 2-propanol. […] Finally, the absorbances were read in an eight-channel computer-controlled photometer (Multiskan MCC, Flow Laboratories) at two wavelengths (540 and 690 nm). The absorbance measured at 690 nm was automatically subtracted from the absorbance at 540 nm, so as to eliminate the effects of non-specific absorption.

[2] = test system: Respiratory Syncytial Virus; assay: microbe, parasite or virus in culture; assay type: cell-based; conditions: for SI: selectivity index = CC50 divided by IC50
Experimental: as §1
Automated tetrazolium-based […] assays were used for determination of IC50 and CC50 of test compounds. Flat-bottom, 96-well plastic microtiter trays were filled with 180 μl of Eagle's Basal Medium, supplemented with 5% FCS (0% for FLU) and 20 mM Herpes buffer. Subsequently, stock solutions (7.8×final test concentration) of compounds were added in 45 μl volumes to a series of triplicate wells so as to allow simultaneous evaluation of their effects on virus- and mock-infected cells. Five five-fold dilutions were made directly in the microtiter trays using a robot system. Untreated virus controls, and HeLa cell controls were included in each test. Approximately 100 TCID50 Respiratory Syncytial Virus was added to two of the three rows in a volume of 50 μl. The same volume of medium was added to the third row to measure the cytotoxicity of the compounds at the same concentrations as those used to measure the antiviral activity. After two hours of incubation, a suspension (4×10^5 cells/ml) of HeLa cells was added to all wells in a volume of 50 μl. The cultures were incubated at 37° C. in a 5% CO2 atmosphere. Seven days after infection the cytotoxicity and the antiviral activity was examined spectrophotometrically. To each well of the microtiter tray, 25 μl of a solution of MIT (3-(4,5-dimethylthiazol-2-yl)-2,5-diphenyltetrazolium bromide) was added. The trays were further incubated at 37° C. for 2 hours, after which the medium was removed from each cup. Solubilization of the formazan crystals was achieved by adding 100 μl 2-propanol. Complete dissolution of the formazan crystals were obtained after the trays have been placed on a plate shaker for 10 min. Finally, the absorbances were read in an eight-channel computer-controlled photometer (Multiskan MCC, Flow Laboratories) at two wavelengths (540 and 690 nm). The absorbance measured at 690 nm was automatically subtracted from the absorbance at 540 nm, so as to eliminate the effects of non-specific absorption.

[3] = human respiratory syncytial virus, HeLa, 168 h

| Compound | melting point | SI [2] | other results |
| --- | --- | --- | --- |
| CC(C)C(N)CN1CCC(Nc2nc3ccccc3n2CC2CCc3ccccc3N2)CC1.Cl.Cl.Cl.Cl.O (racemic) (hydrate or solvate) | 230 °C | – | – |
| CCOCCOC(c1cccc2cccnc12)n1c(NC2CCN(CC(N)C(C)C)CC2)nc2ccccc21 (racemic) [Compound 31, (±)-N-[1-(2-amino-3-methylbutyl)-4-piperidinyl]-1-[(2-ethoxyethoxy)-8-quinolinyl-methyl]-1H-benzimidazol-2-amine] | – | 15849 | CC50 at 7 days [1]: 12700 nM; IC50 [2, 3]: 0.8 nM |
| CC(C)C(N)CN1CCC(Nc2nc3ccccc3n2Cc2ccc3ccccc3n2)CC1 (racemic) [Compound 6, (±)-N-[1-(2-amino-3-methylbutyl)-4-piperidinyl]-1-(2-quinolinylmethyl)-1H-benzimidazol-2-amine] | 135 °C | 794 | CC50 at 7 days [1]: 10000 nM; IC50 ([2]; human respiratory syncytial virus, 168 h, antiviral activity against Respiratory Syncytial Virus, HeLa cells, 7 days after infection, MTT, read-out: IC50): 12.6 nM |
| (±)-N-[1-(2-amino-3-methylbutyl)-4-piperidinyl]-3-(quinolinylmethyl)-3H-imidazo[4,5-b]pyridin-2-amine [Compound 42] | – | >25119 | IC50 ([2]; antiviral activity against Respiratory Syncytial Virus, HeLa cells, 7 days after infection, MTT, read-out: IC50): 0.4 nM |
| CCOC(c1cccc2cccnc12)n1c(NC2CCN(C(CN)C(C)C)CC2)nc2ccccc21 (racemic) | 202 °C | – | – |
| NCCN1CCC(Nc2nc3ccccc3n2Cc2ccnc3ccccc23)CC1 | 196 °C | – | – |
| CC(C)C(N)CN1CCC(Nc2nc3ccccc3n2C2CCCc3ccc(Br)nc32)CC1.Cl.Cl.Cl.O.O.O (racemic) [Compound 56, (±)-N-[1-(2-amino-3-methylbutyl)-4-piperidinyl]-1-(2-bromo-5,6,7,8-tetrahydro-8-quinolinyl)-1H-benzimidazol-2-amine trihydrochloride trihydrate] | – | 7943 | CC50 at 7 days ([1]; cytotoxicity in mock-infected HeLa cells, 7 days, MTT, read-out: CC50): 12700 nM; IC50 [2, 3]: 1.6 nM |
